# Values of other authors, collected in patent US20230097323A1, “Method and Devices for Transdermal Delivery of Hydrogen Gas for Therapeutic Purposes” (Hyderm Innovations LLC, priority 2021, published 2023).
# What was measured:
# [1] = transdermal supply, bag fitted snugly to the skin
# [2] = at ambient temperature
smiles,measurement,setting,value
"[HH] [hydrogen, Molecular hydrogen]",time until hydrogen concentration in the skin reaches a plateau,[1],40 to 60 min
same,solubility of hydrogen in water,[2],about 1.6 mg/l
